From ChEMBL document CHEMBL4477158, “Constituents of Fagraea fragrans with Antimycobacterial Activity in Combination with Erythromycin” (2016)

Assays:
Assay type in all cases: functional
[1] = tested on: Mycolicibacterium smegmatis; assay: Antimycobacterial activity against Mycobacterium smegmatis incubated for 48 hrs by resazurin microplate assay
[2] = tested on: Escherichia coli; assay: Antibacterial activity against Escherichia coli incubated for 16 to 18 hrs by broth microdilution assay
[3] = tested on: Staphylococcus aureus; assay: Antibacterial activity against Staphylococcus aureus incubated for 16 to 18 hrs by broth microdilution assay
[4] = tested on: Mycolicibacterium smegmatis; assay: Potentiation of erythromycin-induced antimycobacterial activity against Mycobacterium smegmatis assessed as reduction in erythromycin MIC90 at 25 ug/ml after 48 hrs by resazurin microplate assay relative to control
[5] = tested on: Mycolicibacterium smegmatis; assay: Potentiation of isoniazid-induced antimycobacterial activity against Mycobacterium smegmatis assessed as isoniazid MIC90 at 25 ug/ml after 48 hrs by resazurin microplate assay (reference value: 200 ug/ml)
[6] = tested on: Mycolicibacterium smegmatis; assay: Potentiation of vancomycin-induced antimycobacterial activity against Mycobacterium smegmatis assessed as vancomycin MIC90 at 25 ug/ml after 48 hrs by resazurin microplate assay (reference value: 0.5 ug/ml)
[7] = tested on: Mycolicibacterium smegmatis; assay: Potentiation of rifampicin-induced antimycobacterial activity against Mycobacterium smegmatis assessed as rifampicin MIC90 at 25 ug/ml after 48 hrs by resazurin microplate assay (reference value: 8 ug/ml)
[8] = tested on: Mycolicibacterium smegmatis; assay: Potentiation of streptomycin-induced antimycobacterial activity against Mycobacterium smegmatis assessed as streptomycin MIC90 at 25 ug/ml after 48 hrs by resazurin microplate assay (reference value: 0.25 ug/ml)
[9] = tested on: Mycolicibacterium smegmatis; assay: Potentiation of erythromycin-induced antimycobacterial activity against Mycobacterium smegmatis assessed as erythromycin MIC90 at 25 ug/ml after 48 hrs by resazurin microplate assay (reference value: 10 ug/ml)
[10] = tested on: Mycolicibacterium smegmatis; assay: Potentiation of kanamycin-induced antimycobacterial activity against Mycobacterium smegmatis assessed as kanamycin MIC90 at 25 ug/ml after 48 hrs by resazurin microplate assay (reference value: 2.5 ug/ml)

SMILES	MIC90 [1] [µg/mL]	MIC [2] [µg/mL]	MIC [3] [µg/mL]	fold change (FC) [4]	MIC90 [5] [µg/mL]	MIC90 [6] [µg/mL]	MIC90 [7] [µg/mL]	MIC90 [8] [µg/mL]	MIC90 [9] [µg/mL]	MIC90 [10] [µg/mL]
C[C@H]1[C@@H]2C(=O)OCC[C@@H]2C[C@H]1O	> 25	> 128	> 128	–	–	–	–	–	–	–
O=Cc1cccc2c(=O)occc12	> 25	> 128	> 128	8	100	2.5	8	0.125	1.25	1
C[C@@H]1OC=C2C(=O)OCC[C@H]2[C@@H]1C(=O)O	> 25	> 128	> 128	–	–	–	–	–	–	–
C[C@@H]1OCC2=C(CCOC2=O)[C@H]1CO	> 25	> 128	> 128	8	100	0.125	8	0.125	1.25	1
COc1cc(/C=C/C(=O)OCCCCCCCCCCCCCCCCCCCCCCCCCCCCCC=O)ccc1O	> 25	> 128	> 128	–	100	2.5	8	0.125	2.5	1
C/C=C1\COC(OC)C2=C1CCOC2=O (centres undefined)	> 25	> 128	> 128	–	–	–	–	–	–	–
C[C@@H]1OCC2=C(CCOC2=O)[C@@H]1CO	> 25	> 128	> 128	–	–	–	–	–	–	–
O=Cc1cccc2c1[C@H]1[C@@H]3OC(=O)c4cccc(C=O)c4[C@@H]3[C@H]1OC2=O	> 25	> 128	> 128	–	–	–	–	–	–	–
C[C@@H]1Cc2cccc(O)c2C(=O)O1 [(-)-(R)-MELLEIN]	> 25	> 128	> 128	16	100	2.5	8	0.125	0.625	1
